Assay results reported in ChEMBL document CHEMBL1126340, “Dual-acting thromboxane receptor antagonist/synthase inhibitors: heterocyclic variations” (Bioorg Med Chem Lett, 1992).

How the values were obtained:
Thromboxane-A synthase = biological target: T1, Thromboxane-A synthase (Homo sapiens, UniProt P24557); assay: Inhibition of human Thromboxane A2 synthase
T1 sequence (P24557 whole entry): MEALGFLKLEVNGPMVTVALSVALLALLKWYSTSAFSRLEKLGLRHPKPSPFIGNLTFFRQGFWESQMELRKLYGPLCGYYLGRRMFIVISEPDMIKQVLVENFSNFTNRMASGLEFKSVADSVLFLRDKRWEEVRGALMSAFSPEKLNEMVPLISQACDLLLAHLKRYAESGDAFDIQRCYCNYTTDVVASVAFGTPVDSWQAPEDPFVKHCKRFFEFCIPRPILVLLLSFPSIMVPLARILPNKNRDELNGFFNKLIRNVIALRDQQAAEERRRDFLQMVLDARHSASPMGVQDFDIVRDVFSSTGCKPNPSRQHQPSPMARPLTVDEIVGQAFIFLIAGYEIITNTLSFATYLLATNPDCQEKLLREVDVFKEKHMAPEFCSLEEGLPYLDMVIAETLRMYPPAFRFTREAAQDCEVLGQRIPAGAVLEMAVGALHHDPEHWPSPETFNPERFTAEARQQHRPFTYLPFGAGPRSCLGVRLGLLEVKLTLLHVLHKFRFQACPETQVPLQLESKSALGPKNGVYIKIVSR

Canis familiaris [1] = assay: Compound was tested in vivo for inhibition of serum TXB2 formation in conscious dog at a oral dose of 1 mg/kg; type: functional; settings: Canis lupus familiaris
Thromboxane A2 receptor = biological target: T2, Thromboxane A2 receptor (Homo sapiens, UniProt P21731); assay: Antagonistic potency against Thromboxane A2 receptor expressed as inhibition of U 46619-induced platelet aggregation in human platelet rich plasma.; type: functional; settings: read-out: pA2 (converted)
T2 sequence (P21731 whole entry): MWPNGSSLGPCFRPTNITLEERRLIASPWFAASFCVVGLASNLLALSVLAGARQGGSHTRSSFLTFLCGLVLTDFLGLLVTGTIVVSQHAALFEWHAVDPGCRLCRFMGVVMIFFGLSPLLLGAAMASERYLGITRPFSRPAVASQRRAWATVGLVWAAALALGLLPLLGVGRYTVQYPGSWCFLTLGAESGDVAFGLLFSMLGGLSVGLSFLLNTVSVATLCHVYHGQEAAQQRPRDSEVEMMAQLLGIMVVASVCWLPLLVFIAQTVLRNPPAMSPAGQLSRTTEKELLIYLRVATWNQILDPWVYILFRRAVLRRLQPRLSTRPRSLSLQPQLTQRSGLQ

Canis familiaris [2] = assay: Compound was tested in vivo for blockade of U 46619-induced platelet aggregation in conscious dog at a oral dose of 1 mg/kg; Expressed as Concentration ratio; type: functional, Canis lupus familiaris

IC50 (Thromboxane-A synthase)	Kb (Thromboxane A2 receptor)	Compound	inhibition in vivo at 1 mg/kg (Canis familiaris [1])	Activity (Canis familiaris [2])
900 nM		CCCCCCn1cncc1[C@H]1OC(C)(C)OC[C@H]1C/C=C\CCC(=O)O		
80 nM		CC1(C)OC[C@@H](C/C=C\CCC(=O)O)[C@@H](c2cncs2)O1		
120 nM		CC1(C)OC[C@@H](C/C=C\CCC(=O)O)[C@@H](c2cccnc2)O1		
4100 nM		CC1(C)OC[C@@H](C/C=C\CCC(=O)O)[C@@H](c2cccs2)O1		
> 10000 nM		CC1(C)OC[C@@H](C/C=C\CCC(=O)O)[C@@H](c2cncnc2)O1		
7400 nM		CC1(C)OC[C@@H](C/C=C\CCC(=O)O)[C@@H](c2ccnnc2)O1		
70 nM		Cn1cncc1[C@H]1OC(C)(C)OC[C@H]1C/C=C\CCC(=O)O		
> 10000 nM		CC1(C)OC[C@@H](C/C=C\CCC(=O)O)[C@@H](c2cnccn2)O1		
18 nM	5.01 nM	Cc1ccc(OC(C)(C)[C@H]2OC[C@@H](C/C=C\CCC(=O)O)[C@@H](c3cncs3)O2)c([N+](=O)[O-])c1	60%	>50
490 nM	200 nM	CCCCCCn1cncc1[C@H]1O[C@@H](C(C)(C)Oc2ccc(C)cc2[N+](=O)[O-])OC[C@H]1C/C=C\CCC(=O)O		
50 nM	3.98 nM	Cc1ccc(OC(C)(C)[C@H]2OC[C@@H](C/C=C\CCC(=O)O)[C@@H](c3cncn3C)O2)c([N+](=O)[O-])c1		
19 nM	3.98 nM	Cc1ccc(OC(C)(C)[C@H]2OC[C@@H](C/C=C\CCC(=O)O)[C@@H](c3cccnc3)O2)c([N+](=O)[O-])c1		
> 10000 nM		CC1(C)OC[C@@H](C/C=C\CCC(=O)O)[C@@H](c2cnco2)O1		
